According to the supplement of paper PMC10307832:

What was measured:
Assay in all cases: relative viability (nuclei count vs DMSO), 5 days (fraction); higher = more cells survive
UMC-11 = system: UMC-11
Method in brief: (§1)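 Relative viability divides the nuclei count in treated wells by that in vehicle wells. Lung cancer cell lines were seeded in 1536-well plates, dosed by pin tool the next day, and fixed and stained after 5 days in one step with final 0.05% Triton X-100, 1% formaldehyde and 1 ug/ml Hoechst. Dosing was a single drug or a fixed anchor-drug dose plus five library-drug doses (not always all listed) in √10 steps, and values are medians of duplicate plates imaged at 4×.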

NCI-H2087 = system: NCI-H2087
Method in brief: as §1

NCI-H3122 = system: NCI-H3122
Method in brief: as §1

NCI-H2170 = system: NCI-H2170
Method in brief: as §1

NCI-H1395 = system: NCI-H1395
Method in brief: as §1

NCI-H1651 = system: NCI-H1651
Method in brief: as §1

PC-3 [JPC-3] = system: PC-3 [JPC-3]
Method in brief: as §1

NCI-H1793 = system: NCI-H1793
Method in brief: as §1

ABC-1 = system: ABC-1
Method in brief: as §1

CAL-12T = system: CAL-12T
Method in brief: as §1

RERF-LC-KJ = system: RERF-LC-KJ
Method in brief: as §1

NCI-H1755 = system: NCI-H1755
Method in brief: as §1

NCI-H1944 = system: NCI-H1944
Method in brief: as §1

LOU-NH91 = system: LOU-NH91
Method in brief: as §1

LU99A = system: LU99A
Method in brief: as §1

NCI-H460 = system: NCI-H460
Method in brief: as §1

LC-2-ad = system: LC-2-ad
Method in brief: as §1

HCC-366 = system: HCC-366
Method in brief: as §1

NCI-H2405 = system: NCI-H2405
Method in brief: as §1

HCC-78 = system: HCC-78
Method in brief: as §1

NCI-H2228 = system: NCI-H2228
Method in brief: as §1

Cc1sc2c(c1C)C(c1ccc(Cl)cc1)=N[C@@H](CC(=O)OC(C)(C)C)c1nnc(C)n1-2 [JQ1] + Cc1nc(NC(=O)N2CCC[C@H]2C(N)=O)sc1-c1ccnc(C(C)(C)C(F)(F)F)c1 [Alpelisib] (partner 2 µM)
relative viability (UMC-11; first compound 0.04 µM): 0.941 | relative viability (UMC-11; first compound 0.1265 µM): 0.997 | relative viability (UMC-11; first compound 0.4 µM): 0.26 | relative viability (UMC-11; first compound 1.265 µM): 0.197 | relative viability (UMC-11; first compound 4 µM): 0.158 | relative viability (NCI-H2087; first compound 0.04 µM): 1.08 | relative viability (NCI-H2087; first compound 0.4 µM): 0.811 | relative viability (NCI-H2087; first compound 1.265 µM): 0.625 | relative viability (NCI-H2087; first compound 4 µM): 0.438 | relative viability (NCI-H3122; first compound 0.04 µM): 0.833 | relative viability (NCI-H3122; first compound 0.1265 µM): 0.771 | relative viability (NCI-H3122; first compound 0.4 µM): 0.963 | relative viability (NCI-H3122; first compound 1.265 µM): 0.661 | relative viability (NCI-H3122; first compound 4 µM): 0.663 | relative viability (NCI-H2170; first compound 0.04 µM): 0.811 | relative viability (NCI-H2170; first compound 0.1265 µM): 0.801 | relative viability (NCI-H2170; first compound 0.4 µM): 0.689 | relative viability (NCI-H2170; first compound 1.265 µM): 0.403 | relative viability (NCI-H2170; first compound 4 µM): 0.34 | relative viability (NCI-H1395; first compound 0.04 µM): 1.03 | relative viability (NCI-H1395; first compound 0.1265 µM): 0.856 | relative viability (NCI-H1395; first compound 0.4 µM): 0.813 | relative viability (NCI-H1395; first compound 1.265 µM): 0.495 | relative viability (NCI-H1395; first compound 4 µM): 0.404 | relative viability (NCI-H1651; first compound 0.04 µM): 0.882 | relative viability (NCI-H1651; first compound 0.1265 µM): 0.886 | relative viability (NCI-H1651; first compound 0.4 µM): 0.589 | relative viability (NCI-H1651; first compound 1.265 µM): 0.462 | relative viability (NCI-H1651; first compound 4 µM): 0.411 | relative viability (PC-3 [JPC-3]; first compound 0.04 µM): 1.06 | relative viability (PC-3 [JPC-3]; first compound 0.1265 µM): 1.03 | relative viability (PC-3 [JPC-3]; first compound 0.4 µM): 1.09 | relative viability (PC-3 [JPC-3]; first compound 1.265 µM): 0.775 | relative viability (PC-3 [JPC-3]; first compound 4 µM): 0.608 | relative viability (NCI-H1793; first compound 0.04 µM): 0.653 | relative viability (NCI-H1793; first compound 0.1265 µM): 0.781 | relative viability (NCI-H1793; first compound 0.4 µM): 0.558 | relative viability (NCI-H1793; first compound 1.265 µM): 0.633 | relative viability (NCI-H1793; first compound 4 µM): 0.696 | relative viability (ABC-1; first compound 0.04 µM): 1.07 | relative viability (ABC-1; first compound 0.1265 µM): 1.04 | relative viability (ABC-1; first compound 0.4 µM): 0.829 | relative viability (ABC-1; first compound 1.265 µM): 0.424 | relative viability (ABC-1; first compound 4 µM): 0.465 | relative viability (CAL-12T; first compound 0.04 µM): 1.08 | relative viability (CAL-12T; first compound 0.1265 µM): 1.42 | relative viability (CAL-12T; first compound 0.4 µM): 0.919 | relative viability (CAL-12T; first compound 1.265 µM): 0.325 | relative viability (CAL-12T; first compound 4 µM): 0.328 | relative viability (RERF-LC-KJ; first compound 0.04 µM): 0.806 | relative viability (RERF-LC-KJ; first compound 0.1265 µM): 0.925 | relative viability (RERF-LC-KJ; first compound 0.4 µM): 0.793 | relative viability (RERF-LC-KJ; first compound 1.265 µM): 0.743 | relative viability (RERF-LC-KJ; first compound 4 µM): 0.427 | relative viability (NCI-H1755; first compound 0.04 µM): 0.916 | relative viability (NCI-H1755; first compound 0.1265 µM): 0.918 | relative viability (NCI-H1755; first compound 0.4 µM): 1.01 | relative viability (NCI-H1755; first compound 1.265 µM): 0.623 | relative viability (NCI-H1755; first compound 4 µM): 0.533 | relative viability (NCI-H1944; first compound 0.04 µM): 0.709 | relative viability (NCI-H1944; first compound 0.1265 µM): 0.722 | relative viability (NCI-H1944; first compound 0.4 µM): 0.715 | relative viability (NCI-H1944; first compound 1.265 µM): 0.544 | relative viability (NCI-H1944; first compound 4 µM): 0.397 | relative viability (LOU-NH91; first compound 0.04 µM): 0.683 | relative viability (LOU-NH91; first compound 0.1265 µM): 0.664 | relative viability (LOU-NH91; first compound 0.4 µM): 0.458 | relative viability (LOU-NH91; first compound 1.265 µM): 0.491 | relative viability (LOU-NH91; first compound 4 µM): 0.473 | relative viability (LU99A; first compound 0.04 µM): 0.537 | relative viability (LU99A; first compound 0.1265 µM): 0.544 | relative viability (LU99A; first compound 0.4 µM): 0.424 | relative viability (LU99A; first compound 1.265 µM): 0.307 | relative viability (LU99A; first compound 4 µM): 0.235 | relative viability (NCI-H460; first compound 0.04 µM): 0.47 | relative viability (NCI-H460; first compound 0.1265 µM): 0.344 | relative viability (NCI-H460; first compound 0.4 µM): 0.257 | relative viability (NCI-H460; first compound 1.265 µM): 0.0483 | relative viability (NCI-H460; first compound 4 µM): 0.0414 | relative viability (LC-2-ad; first compound 0.04 µM): 0.953 | relative viability (LC-2-ad; first compound 0.1265 µM): 0.794 | relative viability (LC-2-ad; first compound 0.4 µM): 0.54 | relative viability (LC-2-ad; first compound 1.265 µM): 0.289 | relative viability (LC-2-ad; first compound 4 µM): 0.217 | relative viability (HCC-366; first compound 0.04 µM): 0.405 | relative viability (HCC-366; first compound 0.4 µM): 0.404 | relative viability (HCC-366; first compound 1.265 µM): 0.233 | relative viability (HCC-366; first compound 4 µM): 0.215 | relative viability (NCI-H2405; first compound 0.04 µM): 0.824 | relative viability (NCI-H2405; first compound 0.4 µM): 0.74 | relative viability (NCI-H2405; first compound 1.265 µM): 0.436 | relative viability (NCI-H2405; first compound 4 µM): 0.256 | relative viability (HCC-78; first compound 0.04 µM): 0.336 | relative viability (HCC-78; first compound 0.1265 µM): 0.34 | relative viability (HCC-78; first compound 0.4 µM): 0.281 | relative viability (HCC-78; first compound 1.265 µM): 0.234 | relative viability (HCC-78; first compound 4 µM): 0.252 | relative viability (NCI-H2228; first compound 0.04 µM): 0.644 | relative viability (NCI-H2228; first compound 0.1265 µM): 0.602 | relative viability (NCI-H2228; first compound 0.4 µM): 0.504 | relative viability (NCI-H2228; first compound 1.265 µM): 0.497 | relative viability (NCI-H2228; first compound 4 µM): 0.451
